The values below come from PubChem BioAssay (NCI).

Some test systems named below: SN12C renal; MOLT-4 leukemia; CCRF-CEM leukemia; NCI/ADR-RES ovarian; NCI-H226 lung; OVCAR-4 ovarian; UACC-62 melanoma; TK-10 renal; SNB-75 CNS; MDA-MB-435; K-562 leukemia; T-47D breast; HOP-92 NSCLC; MALME-3M melanoma; SK-MEL-2 melanoma; OVCAR-3 ovarian; NCI-H460 lung; RXF 393 renal; RPMI-8226 leukemia; MCF7 breast.
What all share (experiment): NCI anticancer screen, dose series, 48 h

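The compound was tested at five concentrations on cells cultured in 96-well plates, with a 48-hour exposure period. TGI marks complete inhibition of growth.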

On to `Cc1cccc(Cl)c1NCC(O)CN1CCN(C)CC1` (configuration not stated), for which the TGI with SN12C renal, with MOLT-4 leukemia, in the assay with CCRF-CEM leukemia, in the assay with NCI/ADR-RES ovarian, in the assay on NCI-H226 lung and in the assay with OVCAR-4 ovarian was greater than 100 µM each time. In addition, the TGI in the assay on UACC-62 melanoma, in the assay with TK-10 renal, in the assay with SNB-75 CNS, with MDA-MB-435, in the assay on K-562 leukemia and in the assay with T-47D breast was greater than 100 µM in each case. The TGI in the assay with HOP-92 NSCLC, with MALME-3M melanoma, in the assay with SK-MEL-2 melanoma, in the assay on OVCAR-3 ovarian, in the assay with NCI-H460 lung and with RXF 393 renal was greater than 100 µM throughout.
Consider `COC(=O)[C@@H]1C=C[C@H](OC2OC(COC(C)=O)C(OC(C)=O)C(OC(C)=O)C2OC(C)=O)n2c(=O)n(-c3ccccc3)c(=O)n21` (some centres not stated), for which the TGI turned out to be 7.95 µM in the assay with SN12C renal; 6.05 µM in the assay on RPMI-8226 leukemia; 5.19 µM with MOLT-4 leukemia; 4.42 µM with CCRF-CEM leukemia; 31.4 µM in the assay on NCI/ADR-RES ovarian; 40.4 µM with NCI-H226 lung. For the same compound, the TGI was found to be 3.22 µM with OVCAR-4 ovarian; 8.89 µM with UACC-62 melanoma; 3.74 µM in the assay with TK-10 renal; 13 µM in the assay with SNB-75 CNS; 11.9 µM in the assay on MDA-MB-435; 4.02 µM in the assay with K-562 leukemia. Further, the TGI in the assay on T-47D breast is 8.75 µM; with HOP-92 NSCLC, 3.59 µM; in the assay with MALME-3M melanoma, 4.07 µM; in the assay on SK-MEL-2 melanoma it was 5.05 µM; with OVCAR-3 ovarian, 3.24 µM; in the assay on NCI-H460 lung, 35.8 µM. The compound further had a TGI in the assay with RXF 393 renal of 4.12 µM.
On to `N#Cc1c(-c2ccc(Cl)cc2)c2c(n(C3OC(CO)C(O)C(O)C3O)c1=S)CCCC2` (configuration not stated), for which the TGI with SN12C renal was greater than 100 µM; in the assay with RPMI-8226 leukemia, greater than 100 µM; in the assay with MOLT-4 leukemia it was 87.1 µM; in the assay with CCRF-CEM leukemia it was greater than 100 µM; in the assay on NCI/ADR-RES ovarian it was greater than 100 µM; with MCF7 breast it was greater than 100 µM. Further, the TGI with NCI-H226 lung, in the assay with OVCAR-4 ovarian, with TK-10 renal, in the assay with SNB-75 CNS, in the assay on MDA-MB-435 and in the assay on K-562 leukemia was greater than 100 µM each time. The TGI in the assay with HOP-92 NSCLC, with MALME-3M melanoma, in the assay on SK-MEL-2 melanoma, in the assay on OVCAR-3 ovarian and with NCI-H460 lung was greater than 100 µM each time.
As to `CC1(C)C2CCC1(C)C(N/C(Sc1ccccc1)=C(/C(Cl)=C(Cl)Cl)[N+](=O)[O-])C2` (configuration not stated), the TGI in the assay with SN12C renal is 31 µM; with MOLT-4 leukemia it was greater than 100 µM; with NCI/ADR-RES ovarian, 30.5 µM; in the assay with MCF7 breast, 24 µM; in the assay with NCI-H226 lung it was 31.1 µM; in the assay with OVCAR-4 ovarian, 29.8 µM. Also, the TGI in the assay on UACC-62 melanoma was 21.3 µM; with SNB-75 CNS, 30.4 µM; in the assay on MDA-MB-435, 25.9 µM; in the assay on K-562 leukemia it was greater than 100 µM; with T-47D breast, 31.2 µM; in the assay on MALME-3M melanoma it was 28.4 µM. Besides, the values for the TGI with SK-MEL-2 melanoma, in the assay on OVCAR-3 ovarian and in the assay on NCI-H460 lung were 25 µM, 17.7 µM and 32.7 µM, respectively.
As for `CC1(C)OCN(c2ccc(N3CCOCC3)cc2)Cn2c1nc1ccccc12`, the TGI is greater than 100 µM with SN12C renal; 86.6 µM with RPMI-8226 leukemia; greater than 100 µM with MOLT-4 leukemia; greater than 100 µM with CCRF-CEM leukemia; greater than 100 µM with NCI-H226 lung; greater than 100 µM in the assay on OVCAR-4 ovarian. Also, the TGI with UACC-62 melanoma, in the assay on TK-10 renal, in the assay on SNB-75 CNS, in the assay with K-562 leukemia, with HOP-92 NSCLC and in the assay with MALME-3M melanoma was greater than 100 µM throughout. Besides, the TGI with SK-MEL-2 melanoma, in the assay with OVCAR-3 ovarian, in the assay on NCI-H460 lung and with RXF 393 renal was greater than 100 µM throughout.
For `O=C1COc2cc(NC(=S)Nc3ccccc3)ccc2N1`, the TGI in the assay with SN12C renal, with RPMI-8226 leukemia, with MOLT-4 leukemia, in the assay on CCRF-CEM leukemia, in the assay with NCI-H226 lung and with OVCAR-4 ovarian was greater than 100 µM each time. Also, the TGI with UACC-62 melanoma, in the assay on TK-10 renal, in the assay with SNB-75 CNS, in the assay on K-562 leukemia, in the assay on HOP-92 NSCLC and in the assay with MALME-3M melanoma was greater than 100 µM throughout. In addition, the TGI in the assay with SK-MEL-2 melanoma, with OVCAR-3 ovarian, with NCI-H460 lung and in the assay on RXF 393 renal was greater than 100 µM throughout.
As for `Nn1c(C23CC4CC(CC(C4)C2)C3)n[nH]c1=S`, the TGI in the assay on SN12C renal, in the assay with RPMI-8226 leukemia, in the assay on MOLT-4 leukemia, in the assay on CCRF-CEM leukemia, with NCI/ADR-RES ovarian and with NCI-H226 lung was greater than 100 µM throughout. Further, the TGI in the assay with OVCAR-4 ovarian, in the assay on UACC-62 melanoma, with TK-10 renal, in the assay with SNB-75 CNS, in the assay with MDA-MB-435 and in the assay on K-562 leukemia was greater than 100 µM in each case. The TGI in the assay on T-47D breast, with HOP-92 NSCLC, in the assay with MALME-3M melanoma, in the assay on SK-MEL-2 melanoma, with OVCAR-3 ovarian and in the assay on NCI-H460 lung was greater than 100 µM each time. Moreover, in the assay on RXF 393 renal, the TGI is greater than 100 µM.
In the case of `S=C(N/N=C/c1ccccn1)N1CCCCC1`, the TGI in the assay with SN12C renal is 1.96 µM; in the assay with RPMI-8226 leukemia, 1.68 µM; in the assay with NCI/ADR-RES ovarian, less than 0.0382 µM; in the assay with MCF7 breast it was 50 µM; in the assay on NCI-H226 lung, 6.97 µM; in the assay with OVCAR-4 ovarian, greater than 24.1 µM. The TGI with UACC-62 melanoma is 0.575 µM; with TK-10 renal it was greater than 100 µM; with SNB-75 CNS, 0.181 µM; in the assay on MDA-MB-435 it was greater than 100 µM; in the assay with K-562 leukemia, 45.6 µM; with HOP-92 NSCLC it was greater than 100 µM. Moreover, the TGI in the assay with MALME-3M melanoma was determined as 7.57 µM; with SK-MEL-2 melanoma it was 18.1 µM; in the assay on OVCAR-3 ovarian, 26.4 µM; with NCI-H460 lung, 0.457 µM; in the assay on RXF 393 renal it was 3.94 µM.
